Consider 13 compounds from PubChem BioAssay (NCI).

Among the test systems are SK-OV-3 ovarian; NCI-H460 lung; MALME-3M melanoma; CCRF-CEM leukemia; M14 melanoma; T-47D breast; MDA-MB-435; OVCAR-8 ovarian; OVCAR-4 ovarian; UACC-62 melanoma.
Experiment in all cases: DTP human tumour cell line panel, 48 h

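Values below derive from 48-hour exposures of cells grown in 96-well plates, with endpoints linearly interpolated between the two concentrations bracketing the appropriate inhibition level. GI50: concentration for 50% inhibition of growth. The concentration for full growth arrest is given as TGI.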

Usually TGI stands for the concentration at which net growth stops. Read a low TGI as more potent growth arrest. Take `CCOC(=O)C1CCCCN1C(=O)Cc1c[nH]c2ccccc12` (centres undefined): the TGI in the assay on SK-OV-3 ovarian, in the assay with NCI-H460 lung, in the assay on MALME-3M melanoma, with CCRF-CEM leukemia, in the assay on M14 melanoma and with T-47D breast was > 100 µM throughout. Further, the TGI with MDA-MB-435, with OVCAR-8 ovarian, with OVCAR-4 ovarian and in the assay with UACC-62 melanoma was > 100 µM throughout.

`O=c1[nH]nc(-c2ccccc2)n1O`: the TGI in the assay with SK-OV-3 ovarian, with NCI-H460 lung, in the assay on MALME-3M melanoma, with CCRF-CEM leukemia, in the assay with M14 melanoma and in the assay on T-47D breast was > 100 µM each time. In addition, the total growth inhibition concentration (TGI) in the assay on MDA-MB-435, in the assay with OVCAR-8 ovarian, in the assay with OVCAR-4 ovarian and in the assay on UACC-62 melanoma was > 100 µM in each case.

Regarding `CC1(C)CC(=O)c2c(nc3c4c([nH]c(-c5ccc(Br)cc5)c24)CC(C)(C)C3)C1`, the TGI in the assay on SK-OV-3 ovarian, with NCI-H460 lung, in the assay with MALME-3M melanoma, in the assay with CCRF-CEM leukemia, in the assay on M14 melanoma and in the assay with T-47D breast was > 100 µM in each case. Besides, the TGI in the assay with MDA-MB-435, with OVCAR-8 ovarian, with OVCAR-4 ovarian and with UACC-62 melanoma was > 100 µM in each case.

For `CC(C)(C)OC(=O)NCCCCC(N)NC(=O)c1ccccc1` (centres undefined), the TGI in the assay with SK-OV-3 ovarian, with NCI-H460 lung, in the assay on MALME-3M melanoma, in the assay on CCRF-CEM leukemia, in the assay on M14 melanoma and in the assay with T-47D breast was > 100 µM throughout. Also, the TGI in the assay on MDA-MB-435, with OVCAR-8 ovarian, in the assay on OVCAR-4 ovarian and with UACC-62 melanoma was > 100 µM each time.

As to `c1ccc(N=C2c3ccsc3C(=Nc3ccccc3)c3ccsc32)cc1`, the TGI in the assay on SK-OV-3 ovarian is 16.3 µM; with NCI-H460 lung it was 4.03 µM; in the assay with MALME-3M melanoma it was 0.921 µM; with CCRF-CEM leukemia it was 15 µM; in the assay with M14 melanoma, 2.32 µM; in the assay with T-47D breast, 4.06 µM. Moreover, the TGI amounted to 0.378 µM in the assay with MDA-MB-435, 5.68 µM with OVCAR-8 ovarian, 3.32 µM in the assay on OVCAR-4 ovarian and 3.9 µM with UACC-62 melanoma.

`C[N+](C)(C)c1ncnc2c1ncn2C1CCCO1` (centres undefined): the TGI with SK-OV-3 ovarian, in the assay with NCI-H460 lung, with MALME-3M melanoma, with CCRF-CEM leukemia, in the assay with M14 melanoma and in the assay with T-47D breast was > 100 µM each time. Also, the TGI with MDA-MB-435, in the assay on OVCAR-8 ovarian, in the assay on OVCAR-4 ovarian and in the assay with UACC-62 melanoma was > 100 µM throughout.

In the case of `O=c1[nH]c(Nc2nc3ccccc3[nH]2)nc(O)c1Cc1ccccc1`, the TGI with NCI-H460 lung, with MALME-3M melanoma, in the assay on CCRF-CEM leukemia, with M14 melanoma, in the assay with T-47D breast and in the assay with MDA-MB-435 was > 100 µM each time. In addition, the TGI with OVCAR-8 ovarian, in the assay on OVCAR-4 ovarian and in the assay on UACC-62 melanoma was > 100 µM each time.

On to `COc1ccc(NC(=O)C(=O)/C=C(\O)c2ccccc2)cc1`, for which the TGI in the assay with SK-OV-3 ovarian is > 10 µM; in the assay with MALME-3M melanoma, > 10 µM; in the assay with CCRF-CEM leukemia, 8.76 µM; with M14 melanoma, > 10 µM; in the assay on T-47D breast it was > 10 µM; with MDA-MB-435, > 10 µM. Besides, the TGI with OVCAR-8 ovarian, in the assay with OVCAR-4 ovarian and in the assay on UACC-62 melanoma was > 10 µM each time.

Usually GI50 stands for the concentration giving 50% growth inhibition. Regarding `COc1cc(O)c2c(=O)c(OC)c(-c3ccc(OC)c(OC)c3)oc2c1`, the TGI in the assay with SK-OV-3 ovarian, in the assay on NCI-H460 lung, in the assay on MALME-3M melanoma, in the assay with CCRF-CEM leukemia, in the assay on M14 melanoma and with T-47D breast was > 100 µM each time. The TGI with MDA-MB-435, in the assay with OVCAR-8 ovarian, with OVCAR-4 ovarian and with UACC-62 melanoma was > 100 µM each time. The GI50 with MALME-3M melanoma was > 100 µM; in the assay with M14 melanoma, > 100 µM; in the assay on T-47D breast it was 31.1 µM; with OVCAR-8 ovarian, > 100 µM; with OVCAR-4 ovarian, 61.8 µM; with UACC-62 melanoma, > 100 µM.

For `COc1ccc(C(=O)/C=C/c2ccc(OCC#N)cc2)cc1`, the TGI with SK-OV-3 ovarian was > 100 µM; with NCI-H460 lung, 81.1 µM; with MALME-3M melanoma it was 43.7 µM; in the assay with CCRF-CEM leukemia, 81 µM; with M14 melanoma, 42 µM; in the assay on T-47D breast it was 46 µM. Also, the TGI in the assay on MDA-MB-435 is 59.3 µM; in the assay with OVCAR-8 ovarian it was > 100 µM; with OVCAR-4 ovarian, > 100 µM; in the assay with UACC-62 melanoma it was > 10 µM.

As to `C=CCC1(C)CCCN(Cc2ccccc2)C1=O` (centres undefined), the TGI in the assay on SK-OV-3 ovarian, in the assay with NCI-H460 lung, in the assay with MALME-3M melanoma, with CCRF-CEM leukemia, in the assay with M14 melanoma and in the assay with T-47D breast was > 10 µM each time. The TGI with MDA-MB-435, in the assay on OVCAR-8 ovarian, in the assay on OVCAR-4 ovarian and in the assay with UACC-62 melanoma was > 10 µM throughout.

Regarding `CC(C)/C(Cl)=N/OC(=O)Nc1ccc(Cl)c(Cl)c1`, the TGI in the assay with SK-OV-3 ovarian was determined as 30.7 µM; in the assay on NCI-H460 lung, 34 µM; with MALME-3M melanoma, 4.33 µM; in the assay on CCRF-CEM leukemia, 3.91 µM; in the assay with M14 melanoma it was 6.52 µM; in the assay with T-47D breast, 12.2 µM. Also, the TGI was found to be 15.7 µM in the assay with MDA-MB-435, 32.9 µM in the assay with OVCAR-8 ovarian, 22.5 µM with OVCAR-4 ovarian and 26.5 µM with UACC-62 melanoma.

Turning to `CO/N=C1/c2sccc2[C@H](NC(=O)C(Cc2ccccc2)NC(=O)OC(C)(C)C)[C@@H]1O` (some centres undefined), the TGI with SK-OV-3 ovarian, with NCI-H460 lung, with MALME-3M melanoma, in the assay with CCRF-CEM leukemia, in the assay on M14 melanoma and in the assay with T-47D breast was > 100 µM each time. Besides, the TGI with MDA-MB-435, in the assay with OVCAR-8 ovarian, in the assay with OVCAR-4 ovarian and in the assay on UACC-62 melanoma was > 100 µM in each case.
